According to patent publication US20220017566A1, “TERPINOID DERIVATIVES AND USES THEREOF” (SICHUAN HAISCO PHARMACEUTICAL CO., LTD., priority 2018, published 2022):
Like-named read-outs stand apart in the source and are kept apart here.

Tests used:
[1] = Metabolic stability in mouse liver microsomes; format: in vitro ADME, CD-1 mouse; details: CD-1
Experimental: (§1) The metabolic stability of test compounds was examined in CD-1 mouse, Sprague Dawley rat, Beagle dog, cynomolgus monkey, and human liver microsomes. Test compound (final concentration 1 μM) was mixed with diluted liver microsomes from each of the 5 species and a small aliquot was taken at 0, 5, 10, 20, 30, and 60 minutes for LC/MS/MS analysis. Intrinsic clearance and half-life were calculated.

[2] = Metabolic stability in monkey liver microsomes; format: in vitro ADME, cynomolgus monkey
Experimental: as §1

[3] = test system: IFNγ-induced NO production in Raw 264.7 cells; assay: Nitric oxide assay: suppression of IFNγ-induced NO production (Griess nitrite, adjusted to live cell numbers); format: cell-based; details: Mus musculus, RAW264.7, 2 h pretreatment, IFNγ 10 ng/ml for 24 hours
Outline: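 Raw 264.7 cells in DMEM + 2% FBS were pretreated 2 h with compound (10-point, 1:4 dilution from 100 nM), then stimulated with 10 ng/ml mouse IFNγ for 24 h. Media nitrite was read by Griess and normalised to CellTiter-Glo viability. IC50 from four-parameter fit of % inhibition.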

[4] = Metabolic stability in rat liver microsomes; format: in vitro ADME; details: Sprague Dawley
Experimental: as §1

[5] = Metabolic stability in dog liver microsomes; format: in vitro ADME; details: Beagle
Experimental: as §1

[6] = Pharmacokinetic studies in Sprague Dawley rats (oral gavage and IV); format: in vivo; details: rat, male SD rats, plasma; for AUC(0-t): read-out: AUC0-24 h; for bioavailability: oral 5 mg/kg vs IV 1 mg/kg, read-out: Bioavailibility F %
Experimental: The pharmacokinetics of test compounds was evaluated in male SD rats when administered via oral gavage and IV injection. For oral dosing, compound was formulated in 0.5% methylcellulose and administered at doses of 5 mg/kg (3 rats per dose level) and volume of 10 mL/kg. For IV dosing, compound was formulated in 5% DMSO/5% Solutol/90% saline and administered to 3 rats at a dose of 1 mg/kg and a volume of 5 mL/kg. The rats were fasted overnight before administration. Plasma samples were collected predose and at 0.5, 1, 3, 6, 9, 12, and 24 hours postdose. The samples were analyzed by LC/MS/MS and the concentration of test compound at each timepoint was determined by linear regression. Pharmacokinetic parameters were calculated from the plasma concentrations using Pheonix WinNonlin.

[7] = Metabolic stability in human liver microsomes; format: in vitro ADME
Experimental: as §1

NQO1 = NQO1 activity assay in Raw264.7 cell lysates; format: cell-based; details: Mus musculus; Raw264.7 cells, 48 hours treatment
Experimental: Raw264.7 cells were seeded in DMEM+10% FBS in 96-well plates at a density of 10,000 cells per well. 6 hours after plating, cells were treated with DMSO or test compounds (top dose 100 nM, 1:4 serial dilution, 8-point) for 48 hours. NQO1 activity was then detected in cell lysates using NQO1 activity assay kit (Abeam, Cat#ab184867). NQO1 activity was then plotted against compound concentration, and EC50 values were calculated using four-parameter algorithm in Graphpad Prism.

CYP1A2 = target: T1, CYP1A2 (Homo sapiens, UniProt P05177); assay: CYP450 enzyme inhibition in liver microsomes (cocktail probe incubation); format: in vitro ADME; details: species not given, 0.05-50 μM tested
T1 construct: studied in liver microsomes of CD-1 mouse, Sprague Dawley rat, Beagle dog, cynomolgus monkey, and human; from tissue; host or cells: liver microsomes
T1 sequence (P05177 1-516): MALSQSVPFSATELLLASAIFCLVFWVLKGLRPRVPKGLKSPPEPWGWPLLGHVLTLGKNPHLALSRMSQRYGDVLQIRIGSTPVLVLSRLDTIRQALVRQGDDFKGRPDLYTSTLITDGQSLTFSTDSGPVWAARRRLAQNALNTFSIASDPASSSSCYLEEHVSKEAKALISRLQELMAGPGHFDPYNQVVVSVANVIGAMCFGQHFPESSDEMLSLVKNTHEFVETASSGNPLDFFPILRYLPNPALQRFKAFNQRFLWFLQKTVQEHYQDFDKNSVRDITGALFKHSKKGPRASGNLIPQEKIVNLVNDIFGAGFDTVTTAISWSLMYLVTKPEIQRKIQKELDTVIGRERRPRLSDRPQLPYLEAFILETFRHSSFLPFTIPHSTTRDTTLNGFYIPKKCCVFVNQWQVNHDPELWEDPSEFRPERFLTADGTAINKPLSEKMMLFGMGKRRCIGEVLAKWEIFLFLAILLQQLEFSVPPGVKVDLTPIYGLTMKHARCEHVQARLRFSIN
Outline: (§2)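 Liver microsomes (CD-1 mouse, SD rat, Beagle dog, cynomolgus monkey, human) incubated with a cocktail of CYP-specific probe substrates. Test compounds at seven concentrations (0.05, 0.15, 0.5, 1.5, 5, 15, 50 μM). Known inhibitors included as positive controls at a single concentration above their IC50.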

CYP2D6 = target: T2, CYP2D6 (Homo sapiens, UniProt P10635); assay: as above; format: in vitro ADME; details: species not given, 0.05-50 μM tested
T2 construct: studied in liver microsomes of CD-1 mouse, Sprague Dawley rat, Beagle dog, cynomolgus monkey, and human; from tissue; host or cells: liver microsomes
T2 sequence (P10635 whole entry): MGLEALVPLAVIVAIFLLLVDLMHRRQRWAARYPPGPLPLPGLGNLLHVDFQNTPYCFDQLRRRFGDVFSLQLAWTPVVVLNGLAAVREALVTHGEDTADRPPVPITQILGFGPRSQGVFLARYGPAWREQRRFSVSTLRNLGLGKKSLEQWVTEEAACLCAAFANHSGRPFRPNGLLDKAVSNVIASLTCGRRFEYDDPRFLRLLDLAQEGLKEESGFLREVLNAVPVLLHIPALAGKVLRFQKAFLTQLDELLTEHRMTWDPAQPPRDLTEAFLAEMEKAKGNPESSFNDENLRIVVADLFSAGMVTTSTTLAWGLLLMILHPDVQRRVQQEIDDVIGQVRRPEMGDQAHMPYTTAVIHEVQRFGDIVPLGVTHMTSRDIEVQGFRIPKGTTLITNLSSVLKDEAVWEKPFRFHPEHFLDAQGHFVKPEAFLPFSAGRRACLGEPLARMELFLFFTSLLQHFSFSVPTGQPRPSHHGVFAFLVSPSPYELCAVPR
Outline: as §2

CYP3A4 = target: T3, CYP3A4 (Homo sapiens, UniProt P08684); assay: as above; format: in vitro ADME; details: species not given, 0.05-50 μM tested
T3 construct: studied in liver microsomes of CD-1 mouse, Sprague Dawley rat, Beagle dog, cynomolgus monkey, and human; from tissue; host or cells: liver microsomes
T3 sequence (P08684 whole entry): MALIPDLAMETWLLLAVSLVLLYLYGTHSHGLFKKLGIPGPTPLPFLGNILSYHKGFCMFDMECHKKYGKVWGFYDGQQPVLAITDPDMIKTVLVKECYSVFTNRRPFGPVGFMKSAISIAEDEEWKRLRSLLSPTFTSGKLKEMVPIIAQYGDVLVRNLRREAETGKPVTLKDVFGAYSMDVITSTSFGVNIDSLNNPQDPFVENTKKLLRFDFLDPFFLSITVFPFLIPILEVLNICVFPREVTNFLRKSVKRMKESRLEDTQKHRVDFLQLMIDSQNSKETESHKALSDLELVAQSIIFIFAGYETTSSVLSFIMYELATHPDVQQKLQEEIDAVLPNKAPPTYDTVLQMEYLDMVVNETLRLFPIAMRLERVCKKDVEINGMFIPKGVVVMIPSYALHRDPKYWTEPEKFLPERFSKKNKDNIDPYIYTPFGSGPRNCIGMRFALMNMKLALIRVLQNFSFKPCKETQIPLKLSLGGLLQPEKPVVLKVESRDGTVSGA
Outline: as §2

CYP2C9 = target: T4, CYP2C9 (Homo sapiens, UniProt P11712); assay: as above; format: in vitro ADME; details: species not given, 0.05-50 μM tested
T4 construct: studied in liver microsomes of CD-1 mouse, Sprague Dawley rat, Beagle dog, cynomolgus monkey, and human; from tissue; host or cells: liver microsomes
T4 sequence (P11712 whole entry): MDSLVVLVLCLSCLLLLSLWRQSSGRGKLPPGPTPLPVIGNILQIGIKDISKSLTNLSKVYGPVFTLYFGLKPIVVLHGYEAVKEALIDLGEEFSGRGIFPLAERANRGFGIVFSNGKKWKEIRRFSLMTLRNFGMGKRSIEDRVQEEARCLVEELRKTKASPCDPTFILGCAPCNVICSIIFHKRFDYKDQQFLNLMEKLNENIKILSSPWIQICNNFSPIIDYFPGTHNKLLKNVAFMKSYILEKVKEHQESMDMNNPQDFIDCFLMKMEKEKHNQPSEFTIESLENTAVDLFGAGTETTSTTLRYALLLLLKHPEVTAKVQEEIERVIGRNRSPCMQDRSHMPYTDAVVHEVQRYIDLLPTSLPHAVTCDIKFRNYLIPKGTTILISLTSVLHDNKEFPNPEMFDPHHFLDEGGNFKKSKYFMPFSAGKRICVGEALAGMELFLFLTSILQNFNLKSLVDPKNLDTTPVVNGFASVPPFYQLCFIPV
Outline: as §2

CYP2C19 = target: T5, CYP2C19 (Homo sapiens, UniProt P33261); assay: as above; format: in vitro ADME; details: species not given, 0.05-50 μM tested
T5 construct: studied in liver microsomes of CD-1 mouse, Sprague Dawley rat, Beagle dog, cynomolgus monkey, and human; from tissue; host or cells: liver microsomes
T5 sequence (P33261 whole entry): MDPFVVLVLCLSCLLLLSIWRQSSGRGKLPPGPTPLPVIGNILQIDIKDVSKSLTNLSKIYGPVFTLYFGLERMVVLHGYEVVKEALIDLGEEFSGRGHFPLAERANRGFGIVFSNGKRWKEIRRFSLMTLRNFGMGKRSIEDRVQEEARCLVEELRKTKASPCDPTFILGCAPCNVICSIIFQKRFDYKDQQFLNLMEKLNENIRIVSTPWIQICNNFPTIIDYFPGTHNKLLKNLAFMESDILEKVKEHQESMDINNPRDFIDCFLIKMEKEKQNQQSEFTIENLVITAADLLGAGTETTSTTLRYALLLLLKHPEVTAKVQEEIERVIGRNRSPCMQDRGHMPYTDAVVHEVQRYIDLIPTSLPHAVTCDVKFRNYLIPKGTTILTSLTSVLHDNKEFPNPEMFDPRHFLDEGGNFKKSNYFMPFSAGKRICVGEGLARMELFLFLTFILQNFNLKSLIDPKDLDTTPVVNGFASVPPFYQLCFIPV
Outline: as §2

Row | CLint scaled at 1 μM [1] [mL/min/kg] | half-life at 1 μM [1] [min] | CLint scaled at 1 μM [2] [mL/min/kg] | half-life at 1 μM [2] [min] | IC50 [3] [µM] | CLint scaled at 1 μM [4] [mL/min/kg] | half-life at 1 μM [4] [min] | CLint scaled at 1 μM [5] [mL/min/kg] | half-life at 1 μM [5] [min] | C0 ([6]; IV (1 mg/kg)) [ng/mL] | clearance ([6]; IV (1 mg/kg)) [mL/min/kg] | half-life ([6]; IV (1 mg/kg)) [min] | AUC(0-t) ([6]; IV (1 mg/kg)) [ng·h/mL] | Cmax ([6]; Oral (5 mg/kg)) [ng/mL] | half-life ([6]; Oral (5 mg/kg)) [min] | AUC(0-t) ([6]; Oral (5 mg/kg)) [ng·h/mL] | bioavailability [6] [%] | CLint scaled at 1 μM [7] [mL/min/kg] | half-life at 1 μM [7] [min] | EC50 (NQO1) [µM] | SMILES | other results
1 | 147 | 37.3 | 104 | 18.1 | < 0.01 | 38.8 | 64.3 | 101 | 19.7 | 747 | 50.9 | 192 | 292 | 51 | 174 | 214 | 14.6 | 34.2 | 36.5 | 0.01 to 0.1 | CC(=NC#N)NC[C@]12CCC(C)(C)C[C@H]1[C@H]1C(=O)C=C3[C@@]4(C)C=C(C#N)C(=O)C(C)(C)[C@@H]4CC[C@@]3(C)[C@]1(C)CC2 [Example 4, N′-cyano-N-(((4aS,6aR,6bS,8aR,12aS,14aR,14bS)-11-cyano-2,2,6a,6b,9,9,12a-heptamethyl-10,14-dioxo-1,3,4,5,6,6a,6b,7,8,8a,9,10,12a,14,14a,14b-hexadecahydropicen-4a(2H)-yl)methyl)acetimidamide] | IC50 (CYP1A2): > 50 µM; IC50 (CYP2D6): 2.2 µM; IC50 (CYP3A4): 3.3 µM; IC50 (CYP2C9): 1.6 µM; IC50 (CYP2C19): 4.5 µM
2 | 289 | 19 | 294 | 6.4 | < 0.01 | 87.2 | 28.6 | 58.4 | 34.2 | 1300 | 63.3 | 84 | 263 | 32 | 78 | 102 | 7.8 | 96.2 | 13 | 0.01 to 0.1 | CC1(C)C(=O)C(C#N)=C[C@]2(C)C3=CC(=O)[C@@H]4[C@@H]5C[C@@](C)(c6nnc(C(N)=O)o6)CC[C@]5(C)CC[C@@]4(C)[C@]3(C)CC[C@@H]12 [Example 25, 5-((2S,4aS,6aR,6bS,8aR,12aS,14aR,14bS)-11-cyano-2,4a,6a,6b,9,9,12a-heptamethyl-10,14-dioxo-1,2,3,4,4a,5,6,6a,6b,7,8,8a,9,10,12a,14,14a,14b-octadecahydropicen-2-yl)-1,3,4-oxadiazole-2-carboxamide] | IC50 (CYP1A2): > 50 µM; IC50 (CYP2D6): > 50 µM; IC50 (CYP3A4): 6.6 µM; IC50 (CYP2C9): 6.9 µM; IC50 (CYP2C19): > 50 µM
3 | 402 | 13.7 | 752 | 2.5 | < 0.01 | 161 | 15.5 | 77.3 | 25.8 | 1040 | 56.3 | 282 | 294 | 57 | 216 | 270 | 18.3 | 184 | 6.8 | < 0.01 | CC1(C)C(=O)C(C#N)=C[C@]2(C)C3=CC(=O)[C@@H]4[C@@H]5C[C@@](C)(N6CC(O)C6)CC[C@]5(C)CC[C@@]4(C)[C@]3(C)CC[C@@H]12 [Example 26, (4aR,6aS,6bR,8aS,11S,12aS,14bS)-11-(3-hydroxyazetidin-1-yl)-4,4,6a,6b,8a,11,14b-heptamethyl-3,13-dioxo-3,4,4a,5,6,6a,6b,7,8,8a,9,10,11,12,12a,12b,13,14b-octadecahydropicene-2-carbonitrile] | IC50 (CYP1A2): > 50 µM; IC50 (CYP2D6): > 50 µM; IC50 (CYP3A4): 14.6 µM; IC50 (CYP2C9): 27.6 µM; IC50 (CYP2C19): > 50 µM
